From publication PMC8402715 (Viruses, 2021)

Legend:
FLUAV-infected RPE cells = test: Metabolomics of polar metabolites in media of FLUAV-infected RPE cells; conditions: infected RPE cells (FLUAV moi 1), 10 μM, 24 h
[1] = test system: host genes in mock-infected RPE cells; type: cell-based, human; conditions: 10 μM, 8 h; for expression of PTGS2: mock-infected RPE cells; for expression of PDE4D, CRISPLD2 and PTGES / expression of SLC26A4, FAM111B and CCNE2: non-infected RPE cells, compared to non-treated cells
[2] = test system: host genes in FLUAV-infected RPE cells; type: cell-based, human; conditions: 10 μM, 8 h; for expression of PTGS2: virus-infected RPE cells (FLUAV moi 1); for FLUAV-activated host gene expression: FLUAV-infected RPE cells (moi 1)
[3] = Cell viability assay (Cell Titer Glow) in mock-infected RPE cells, cytotoxicity; conditions: human
[4] = test system: viral RNAs of influenza A/WSN/33(H1N1) virus; type: cell-based, influenza A virus in human RPE cells

SMILES	levels of many polar metabolites in the media (FLUAV-infected RPE cells)	expression of PTGS2 [1]	expression of PTGS2 [2]	CC50 at 48 h [3]	other results
CC(=O)Nc1ccc(O)cc1 [4-acetamidophenol]	elevated	–	–	–	–
C#C[C@]1(O)CC[C@H]2[C@@H]3CCc4cc(O)ccc4[C@H]3CC[C@@]21C [17a-ethynylestradiol]	elevated	–	–	–	–
CC(=O)Oc1ccccc1C(=O)O [acetylsalicylic acid, Acetylsalicylic acid]	elevated	–	–	–	–
CCOC(=O)C1=C(COCCN)NC(C)=C(C(=O)OC)C1c1ccccc1Cl (stereo not shown) [amlodipine, Amlodipine]	elevated	increased	increased	–	–
CCCCNc1cc(C(=O)O)cc(S(N)(=O)=O)c1Oc1ccccc1 [bumetanide, Bumetanide]	elevated	–	–	–	–
CCOc1nc2cccc(C(=O)O)c2n1Cc1ccc(-c2ccccc2-c2nnn[nH]2)cc1 [candesartan, Candesartan]	elevated	–	–	–	–
C#C[C@]1(O)CC[C@H]2[C@@H]3CCC4=CCCC[C@@H]4[C@H]3C(=C)C[C@@]21CC [desogestrel, Desogestrel]	–	–	–	34.5 µM	–
C[C@]12CCC(=O)C=C1[C@@H]1C[C@@H]1[C@H]1[C@@H]3[C@@H]4C[C@@H]4[C@@]4(CCC(=O)O4)[C@@]3(C)CC[C@@H]12 [drospirenone, Drospirenone]	–	increased	increased	–	–
COc1ccc2nc([S@@+]([O-])Cc3ncc(C)c(OC)c3C)[nH]c2c1 [esomeprazole, Esomeprazole]	–	increased	increased	–	–
COC(=O)C1=C(C)NC(C)=C(C(=O)OC(C)(C)CN(C)CCC(c2ccccc2)c2ccccc2)C1c1cccc([N+](=O)[O-])c1 (stereo not shown) [lercanidipine, Lercanidipine]	–	increased	increased	–	–
CN(C)C(=N)N=C(N)N [metformin, Metformin]	–	–	–	–	effect on polyadenylated viral RNAs [4]: differentially affected
CC(C)(C)NCC(O)c1ccc(O)c(CO)c1 (stereo not shown) [salbutamol, Salbutamol]	–	–	–	–	expression of PDE4D, CRISPLD2 and PTGES [1]: increased; expression of SLC26A4, FAM111B and CCNE2 [1]: decreased; FLUAV-activated host gene expression [2]: did not affect
OCc1cc(C(O)CNCCCCCCOCCCCc2ccccc2)ccc1O (stereo not shown) [salmeterol, Salmeterol]	–	–	–	29.3 µM	expression of PDE4D, CRISPLD2 and PTGES [1]: increased; expression of SLC26A4, FAM111B and CCNE2 [1]: decreased; FLUAV-activated host gene expression [2]: did not affect
CN[C@H]1CC[C@@H](c2ccc(Cl)c(Cl)c2)c2ccccc21 [sertraline, Sertraline]	–	increased	increased	17.5 µM	–
CCC(C)(C)C(=O)O[C@H]1C[C@@H](C)C=C2C=C[C@H](C)[C@H](CC[C@@H]3C[C@@H](O)CC(=O)O3)[C@H]21 [simvastatin, Simvastatin]	–	increased	increased	48.3 µM	–
C=C1CC[C@H](O)C/C1=C/C=C1\CCC[C@]2(C)[C@@H]([C@H](C)/C=C/[C@H](C)C(C)C)CC[C@@H]12 [vitamin D2, Vitamin D2]	–	–	–	42.1 µM	–
C=C1CC[C@H](O)C/C1=C/C=C1\CCC[C@]2(C)[C@@H]([C@H](C)CCCC(C)C)CC[C@@H]12 [vitamin D3, Vitamin D3 (colecalciferol)]	–	–	–	48.8 µM	–
